Assays:
PnaA [1] = experiment: PnaA kinetics: conversion of L-Glu and OAA to 2-KG and L-Asp, coupled to SerA/NADH oxidation; type: biochemical, Streptomyces sp. NRRL S-515; conditions: role: substrate (L-Glu, 0.5-15 mM); second substrate OAA 5 mM; pH 7.5, 30° C
Protocol: In addition to the transamination of Pn substrates, PnaA was also capable of catalyzing the reversible conversion of Glu and OAA into 2KG and Asp.
(§1) Kinetic analyses. All reactions (400 μL) were performed in 50 mM HEPES, 150 mM NaCl, pH 7.5, 30° C. using an Agilent Cary 300 spectrophotometer. The instrument was first blanked using the reaction containing the enzymes and the fixed substrate (without NADH). Initial rates were calculated from continual changes in absorbance (340 nm) before and after substrate addition. Data were analyzed using SigmaPlot 15.
Conversion of L-Glu and OAA to 2-KG and L-Asp by His6-SUMO-PnaA. Each reaction contained 1 μM PnaA, 5 μM SerA, 200 uM NADH, 5 mM OAA, the 340 nm absorbance change was recorded for 1 min to measure the background assumption of OAA by SerA, and were initiated by the addition of 0.5, 1, 1.5, 2, 3, 4, 6, 10, or 15 mM L-Glu. PnaA was pre-incubated with PLP (1:5) on ice for 10 min prior to use.

PnaD and PnaA = experiment: Coupled PnaD-PnaA kinetics: PEP conversion to L-PnAla, coupled to MDH/NADH oxidation; type: biochemical, Streptomyces sp. NRRL S-515; conditions: second substrate L-Asp 5 mM
Source text: Apparent steady state parameters were also derived for the conversion of PEP to L-PnAla in reactions with equimolar amounts of PnaD and PnaA (FIG. 20A-FIG. 20B). […] The lower activity in the two-enzyme system is consistent with the slower rate of L-PnAla accumulation observed in the time course experiments (FIG. 16), reflects the unfavourability of PnPy formation [B30], and supports the general hypothesis that PepM activity is the limiting step in Pn biosynthetic pathways.
as §1
Conversion of PEP and L-Asp to L-PnAla and OAA by His6-SUMO-PnaA and His6-PnaD. Each reaction contained 1 μM PnaA, 5 μM PnaD, 5 μM MDH, 200 uM NADH, 2 mM MgCl2, 5 mM L-Asp, and were initiated by the addition of 0.1, 0.2, 0.35, 0.5, 0.65, 0.8, or 1 mM PEP. PnaA was pre-incubated with PLP (1:5) on ice for 10 min prior to use.

[2] = test system: phosphoserine phosphatases; conditions: role: inhibitor; cited from earlier work
[3] = test system: metabotropic glutamate receptors; conditions: cerebral tissues; cited from earlier work
PnaA with PnaD = experiment: PnaD-PnaA coupled forward reaction, 31P NMR (PEP to PnAla); type: biochemical, Streptomyces sp. NRRL S-515; conditions: role: product, PEP 1.5 mM, 2 hours
Protocol: Biochemical assays of His6-SUMO-PnaA with His6-PnaD. Typical reaction mixtures (300 μL) contained 20 μM His6-PnaD, 20 μM His6-SUMO-PnaA, 1.5 mM PEP, 3 mM L-Asp, 100 μM pyridoxal 5′-phosphate (PLP), and 2 mM MgCl2 in 50 mM HEPES, 150 mM NaCl, pH 7.5. Reactions were incubated at 30° C. for 2 hours, heat inactivated at 65° C. for 10 minutes, and then analyzed by ^31P NMR and LC-MS as described above.
Reactions in timecourse experiments ([…]) contained 10 μM His6-PnaD, 10 μM His6-SUMO-PnaA, 1.5 mM PEP, 10 mM L-Asp, 100 μM pyridoxal 5′-phosphate (PLP), and 2 mM MgCl2 in 50 mM HEPES, 150 mM NaCl, pH 7.5. Samples were where heat inactivated 1, 5, 10, 30, 60, 120, and 240 min after initiation and then analyzed by ^31P NMR as described above.
Reactions examining the effect of amino donor concentrations were the same as above, except they contained 1.5, 3, 5, or 10 mM of (L-Asp). Samples were heat inactivated after 120 min and then analyzed by ^31P NMR as described above.

PnaC = PnaC dipeptide ligation reactions (LC-HRMS); type: biochemical, Streptomyces sp. NRRL S-515; conditions: role: substrate
Protocol: (§2) These hypotheses were tested by overproducing and purifying recombinant PnaB and PnaC from E. coli for use in a series of biochemical assays. PnAla, Ala, and ATP were incubated with PnaB or PnaC and the reactions were monitored by ^31P NMR and LC-HRMS. […] To determine if either enzyme could convert Ala-Val into phosphonoalamide A, protein was removed from the PnaC reaction by ultrafiltration and Ala, ATP, and fresh PnaC or PnaB was added to the filtrate. LC-HRMS identified PnAla-Ala-Val as a product following the addition of PnaB, but not PnaC (FIG. 25A-FIG. 25C).
The ATP-Grasp ligases PnaC and PnaB underlie diversification of L-PnAla-containing oligopeptides. To understand the biochemical nature of this potential phosphonopeptide diversity, the substrate specificity of the dipeptide ligase PnaC was first delineated. Microscale biochemical reactions containing purified PnaC were performed with every combination of the 20 canonical amino acids and L-allo-threonine (231 total pairs of substrates). Reactions were analyzed by LC-HRMS to reveal putative dipeptides from 146 out of the 231 combinations. To distinguish residues in reactions containing isomeric pairs (e.g., Ile and Leu, Thr and allo-Thr) new reactions were prepared using ^15N-Ile and 4-^13C-2,3-D2-Thr as substrates. LC-HRMS/MS fragmentation analysis was then performed to verify all products and determine structures.
Biochemical assays of His6-PnaC. Typical reaction mixtures ([…]) contained 10 μM His6-PnaC, […], 3 mM of each L-amino acid, and 5 mM ATP in 50 mM Tris-HCl, 100 mM NaCl, 2 mM MgCl2 pH 9. Reactions were incubated at 30° C. for 16 hours, heat inactivated at 65° C. for 10 minutes, and then analyzed by LC-MS as described above.
Analysis of PnaC and PnaB substrate specificity reactions. An extracted ion chromatogram (EIC) was obtained for each potential product m z. The shape and retention time of each EIC were used to evaluate the quality and plausibility of true signals, and samples with low-confidence EICs were re-analyzed individually, to address the challenges of ion suppression (FIG. 31A-FIG. 31C) and background noise (FIG. 32A-FIG. 32D).

PnaB = PnaB ligation reactions (31P NMR, LC-HRMS); type: biochemical, Streptomyces sp. NRRL S-515; conditions: role: substrate
Protocol: as §2
Biochemical assays of His6-PnaB. Typical reaction mixtures ([…]) contained 10 μM His6-PnaB, 3 mM ATP, 1 mM L-PnAla, 3 mM chemically synthesized L-Ala-L-Val, L-Val-L-Val, L-Ala-L-Ile, or L-Thr-L-Val in 50 mM Tris-HCl, 100 mM NaCl, 2 mM MgCl2 pH 9. Reactions were incubated at 30° C. for 2 hours, heat inactivated at 65° C. for 10 minutes, and then analyzed by NMR and LC-MS as described above.

PnaA [4] = experiment: PnaA kinetics: conversion of L-PnAla and OAA to PnPy and L-Asp, coupled to PnPy reductase VlpB/NADH oxidation; type: biochemical, Streptomyces sp. NRRL S-515; conditions: second substrate OAA 5 mM
Protocol: (§3) Next, kinetic analyses were performed to derive insight on the substrate specificity and reaction selectivity of PnaA transamination. Apparent steady state parameters were calculated in spectrophotometric assays by coupling the formation of OAA, PnPy, and 2KG with NADH oxidation in the presence of malate dehydrogenase (MDH), PnPy reductase (VlpB), and 3-phosphoglycerate dehydrogenase (SerA), respectively (FIG. 18A-FIG. 24B). […] The micromolar Km value observed for PnaA with PnPy is similar to that of other PepM coupling enzymes such as PnPy decarboxylase [B27, B30].
as §1
Conversion of L-PnAla and OAA to PnPy and L-Asp by His6-SUMO-PnaA. Each reaction contained 1 μM PnaA, 5 μM VlpB, 200 uM NADH, 5 mM OAA, the 340 nm absorbance change was recorded for 1 min to measure the background assumption of OAA by VlpB. Then the reactions were initiated by the addition of 0.1, 0.2, 0.35, 0.5, 0.65, 0.8, or 1 mM PnAla. PnaA was pre-incubated with PLP (1:5) on ice for 10 min prior to use.

PnaA [5] = experiment: PnaA kinetics: conversion of PnPy and L-Asp to L-PnAla and OAA, coupled to MDH/NADH oxidation (340 nm); type: biochemical, Streptomyces sp. NRRL S-515; conditions: role: substrate (PnPy, 0.0025-0.015 mM); second substrate L-Asp 5 mM; pH 7.5, 30° C; apparent steady state
Protocol: as §3, §1
Conversion of PnPy and L-Asp to L-PnAla and OAA by His6-SUMO-PnaA. Each reaction contained 0.5 μM PnaA, 5 μM MDH, 200 uM NADH, 5 mM L-Asp, and were initiated by the addition of 0.0025, 0.00375, 0.005, 0.0065, 0.008, 0.01, or 0.015 mM PnPy. PnaA was pre-incubated with PLP (1:5) on ice for 10 min prior to use.

PnaA [6] = experiment: PnaA reverse transamination reaction, 31P NMR/LC-MS (PnAla to PnPy); type: biochemical, Streptomyces sp. NRRL S-515; conditions: role: product, 2 hours
Protocol: Biochemical assays of His6-SUMO-PnaA. Typical reaction mixtures (300 μL) contained 20 μM His6-SUMO-PnaA, 1.5 mM L-PnAla, 3 mM oxaloacetate, and 100 μM pyridoxal 5′-phosphate (PLP) in 50 mM HEPES, 150 mM NaCl, pH 7.5. Reactions were incubated at 30° C. for 2 hours, heat inactivated at 65° C. for 10 minutes, and then analyzed by NMR and LC-MS as described above.
Reactions in time course experiments (150 μL) contained 10 μM His6-SUMO-PnaA, 1.5 mM L-PnAla, 10 mM oxaloacetate (OAA), and 100 μM pyridoxal 5′-phosphate (PLP) in 50 mM HEPES, 150 mM NaCl, pH7.5. Samples were where heat inactivated 1, 5, 10, 30, 60, 120, and 240 min after initiation and then analyzed by ^31P NMR as described above.
Reactions examining the effect of keto-acid acceptor concentrations were the same as above, except they contained 1.5, 3, 5, or 10 mM of (OAA). Samples were heat inactivated after 120 min and then analyzed by ^31P NMR as described above.

MurA = conditions: role: inhibitor; mimics phosphoenolpyruvate; cited from earlier work
[7] = test system: 1-deoxy-D-xylulose 5-phosphate reductoisomerase; conditions: role: inhibitor; cited from earlier work
malaria = conditions: cited from earlier work
bacteria = conditions: cited from earlier work
[8] = role: substrate (PEP, 0.1-1 mM), MgCl2 2 mM, PnaD and PnaA coupled, pH 7.5, 30° C
[9] = role: substrate (PnAla), compared with PnPy
[10] = role: substrate (PnAla, 0.1-1 mM), pH 7.5, 30° C, reverse reaction

N[C@@H](CCC(=O)O)C(=O)O [Glu]
Km (PnaA [1]): 7500 µM | kcat (PnaA [1]): 0.31 s⁻¹

C=C(OP(=O)(O)O)C(=O)O [PEP, phosphoenolpyruvate]
catalytic efficiency lower than that of PnaA directly provided with PnPy (fold) (PnaD and PnaA; role: substrate (PEP), compared with PnPy): 1,000 fold | Km (PnaD and PnaA; [8]): 547 µM | kcat (PnaD and PnaA; [8]): 0.084 s⁻¹

NC(CP(=O)(O)O)C(=O)O (centres unmarked) [PnAla, 2-amino-3-phosphonopropionic acid]
phosphoserine phosphatase inhibition [2]: inhibitor of phosphoserine phosphatases | metabotropic glutamate receptor antagonism [3]: selective antagonist of metabotropic glutamate receptors | PnAla accumulation at apparent equilibrium (PnaA with PnaD; Asp varied 1.5, 3, 5 or 10 mM): ≥ 70% | yield of PnAla from the PepM-coupled forward reaction (PnaA with PnaD; L-Asp 3 mM, PLP 100 μM, 30° C): 50% | modification of PnAla with Ala (PnaC; with Ala and ATP, up to 16 hrs): PnAla remained unmodified | conversion of PnAla with Ala-Val (PnaC; with chemically synthesized Ala-Val and ATP): PnAla remained unmodified by PnaC | conversion of PnAla into phosphonoalamide A (PnaB; L-PnAla 1 mM, with Ala-Val 3 mM and ATP 3 mM, pH 9, 30° C): complete conversion of PnAla into phosphonoalamide A by PnaB | modification of PnAla with Ala (PnaB; with Ala and ATP, up to 16 hrs): PnAla remained unmodified | higher Michaelis constant (fold, reverse reaction compared with PnPy reaction) (PnaA [4]; [9]): 100 fold | lower catalytic efficiency (fold, reverse reaction compared with PnPy reaction) (PnaA [4]; [9]): 100 fold | Km (PnaA [4]; [10]): 327 µM | kcat (PnaA [4]; [10]): 2.4 s⁻¹

O=C(O)C(=O)CP(=O)(O)O [PnPy, 3-phosphonopyruvate]
Km (PnaA [5]): 4.8 µM | kcat (PnaA [5]): 2.3 s⁻¹ | yield of PnPy from the reverse reaction (PnaA [6]; L-PnAla 1.5 mM, OAA 3 mM, PLP 100 μM, 30° C): 48% | PnPy accumulation at apparent equilibrium (PnaA [6]; PnAla 1.5 mM, OAA varied 1.5, 3, 5 or 10 mM): ≥ 70%

C[C@@H]1O[C@@H]1P(=O)(O)O [fosfomycin]
MurA inhibition (MurA): covalently inhibit MurA

O=CN(O)CCCP(=O)(O)O [fosmidomycin]
inhibition of 1-deoxy-D-xylulose 5-phosphate reductoisomerase [7]: inhibiting 1-deoxy-D-xylulose 5-phosphate reductoisomerase | results against malaria in human trials (malaria): promising results against malaria in human trials

CC(C)[C@H](NC(=O)[C@H](C)NC(=O)[C@@H](N)CP(=O)(O)O)C(=O)O [phosphonoalamide A]
spectrum of antimicrobial activity (bacteria): differing spectrums of antimicrobial activity

C[C@H](N)C(=O)N[C@@H](C)C(=O)N[C@@H](CP(=O)(O)O)C(=O)O [phosphonoalamide F, reference compound]
spectrum of antimicrobial activity (bacteria): differing spectrums of antimicrobial activity

Reference: US20260327260A1, “PHOSPHONOALANINE OLIGOPEPTIDES AND METHODS OF MAKING AND USE THEREOF” (priority 2023, published 2026)
